In patent US20240041042A1, “1-(PYRIDYL)-5-AZINYLPYRAZOLE DERIVATIVES, AND THEIR USE FOR CONTROL OF UNDESIRED PLANT GROWTH” (Bayer Aktiengesellschaft, priority 2020, published 2024):
Read-outs that look alike come from different tables or passages of the source.

Tests used:
Format in all cases: in vivo
Viola tricolor (VIOTR) [1] = assay: Post-emergence herbicidal action against VIOTR
In short: (§1)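 Post-emergence greenhouse spray, one-leaf stage, 600 l/ha water plus 0.5% additive; WP or EC formulations; application rates 320 g/ha or lower. Visual % damage vs untreated controls at ~3 weeks.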

[2] = tested on: Amaranthus retroflexus (AMARE); assay: Pre-emergence herbicidal action against AMARE; settings: visual scoring after about 3 weeks vs untreated controls
In short: (§2)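 Pre-emergence soil-surface spray, WP/EC formulation, 0.5% additive, 600 l/ha water, rates of 320 g/ha or lower. Greenhouse, ~3 wk. Visual score, % of untreated control (100% = plants dead, 0% = like control).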

Oryza sativa (ORYSA) = settings: crop plant compatibility
In short: (§3)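 Test crops were treated 2 to 3 weeks after sowing, once they reached one leaf, by spraying compound in water with 0.5% additive at 600 l/ha. Visual scoring compared them with untreated controls roughly 3 weeks on, and appendices a, b and c denote different doses.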

Zea mays (ZEAMX) [3] = settings: crop plant compatibility, 80 g/ha, effect vs untreated controls
In short: as §3

[4] = tested on: Verconica persica (VERPE); assay: Pre-emergence herbicidal action against VERPE; settings: dosage 320 g/ha
In short: as §2

[5] = tested on: Verconica persica (VERPE); assay: Post-emergence herbicidal action against VERPE
In short: as §1

[6] = tested on: Digitaria sanguinalis (DIGSA); assay: Pre-emergence herbicidal action against DIGSA
In short: as §2

[7] = tested on: Amaranthus retroflexus (AMARE); assay: Post-emergence herbicidal action against AMARE
In short: as §1

Zea mays (ZEAMX) [8] = settings: pre-emergence, 80 g/ha, crop plant compatibility, in comparison to untreated controls
Source text: Seeds of monocotyledonous and dicotyledonous weed plants and crop plants are placed in plastic or organic planting pots and covered with soil. The compounds of the invention, formulated in the form of wettable powders (WP) or as emulsion concentrates (EC), are then applied to the surface of the covering soil as aqueous suspension or emulsion with addition of 0.5% additive at a water application rate equivalent to 600 l/ha. After the treatment, the pots are placed in a greenhouse and kept under good growth conditions for the trial plants. After about 3 weeks, the effect of the preparations is scored visually in comparison with untreated controls as percentages. For example, 100% activity=the plants have died, 0% activity=like control plants.
The observed effects on selected crop plants are reported here in comparison to the untreated controls (values in %). The appendices “a” “b” and “c” give differentiation by dosage used with otherwise the same crop plants tested.

[9] = tested on: Pharbitis purpurea (PHBPU); assay: Post-emergence herbicidal action against PHBPU
In short: as §1

[10] = tested on: Polygonum convolvulus (POLCO); assay: Post-emergence herbicidal action against POLCO; settings: dosage 320 g/ha
In short: as §1

Viola tricolor (VIOTR) [11] = assay: Pre-emergence herbicidal action against VIOTR
In short: as §2

Setaria viridis (SETVI) [12] = assay: Post-emergence herbicidal action against SETVI
In short: as §1

[13] = tested on: Matricaria inodora (MATIN); assay: Post-emergence herbicidal action against MATIN
In short: as §1

Lolium rigidum (LOLRI) [14] = assay: Post-emergence herbicidal action against LOLRI
In short: as §1

Setaria viridis (SETVI) [15] = assay: Pre-emergence herbicidal action against SETVI
In short: as §2

Avena fatua (AVEFA) [16] = assay: Post-emergence herbicidal action against AVEFA; settings: visual rating about 3 weeks after treatment
In short: as §1

[17] = tested on: Abutilon theophrasti (ABUTH); assay: Post-emergence herbicidal action against ABUTH; settings: visual rating about 3 weeks after treatment vs untreated controls (100% = plants have died, 0% = like control plants)
In short: as §1

[18] = tested on: Matricaria inodora (MATIN); assay: Pre-emergence herbicidal action against MATIN; settings: dosage 320 g/ha
In short: as §2

[19] = tested on: Echinochloa crus-galli (ECHCG); assay: Pre-emergence herbicidal action against ECHCG; settings: dosage 320 g/ha
In short: as §2

[20] = tested on: Digitaria sanguinalis (DIGSA); assay: Post-emergence herbicidal action against DIGSA; settings: visual rating about 3 weeks after treatment
In short: as §1

Lolium rigidum (LOLRI) [21] = assay: Pre-emergence herbicidal action against LOLRI
In short: as §2

[22] = tested on: Pharbitis purpurea (PHBPU); assay: Pre-emergence herbicidal action against PHBPU; settings: dosage 320 g/ha
In short: as §2

[23] = tested on: Alopecurus myosuroides (ALOMY); assay: Pre-emergence herbicidal action against ALOMY; settings: scored visually after about 3 weeks, 100% = plants have died
In short: as §2

Avena fatua (AVEFA) [24] = assay: Pre-emergence herbicidal action against AVEFA; settings: 320 g/ha, visual scoring after about 3 weeks vs untreated controls
In short: as §2

[25] = tested on: Echinochloa crus-galli (ECHCG); assay: Post-emergence herbicidal action against ECHCG
In short: as §1

[26] = tested on: Alopecurus myosuroides (ALOMY); assay: Post-emergence herbicidal action against ALOMY; settings: visual rating about 3 weeks after treatment vs untreated controls (100% = plants have died, 0% = like control plants)
In short: as §1

[27] = tested on: Polygonum convolvulus (POLCO); assay: Pre-emergence herbicidal action against POLCO
In short: as §2

[28] = 80 g/ha, effect in comparison to untreated controls
[29] = 80 g/ha, visual rating about 3 weeks after treatment vs untreated controls (100% = plants have died, 0% = like control plants)
[30] = 320 g/ha, visual rating about 3 weeks after treatment
[31] = 80 g/ha, visual scoring after about 3 weeks vs untreated controls

For `O=C(O)COc1nn(-c2ccccn2)c(-c2ccc(Cl)nc2)c1Br` [Example I-235], the “Post-emergence action against VIOTR in %” value (Viola tricolor (VIOTR) [1]; 80 g/ha) was 80%, the “Post-emergence action against VIOTR in %” value (Viola tricolor (VIOTR) [1]; 320 g/ha) was 80% and the “Pre-emergence action against AMARE in %” value ([2]; 80 g/ha) was 80%. The “Pre-emergence action against AMARE in %” value ([2]; 320 g/ha) was 90%, the “Post-emergence action against ORYSA in %” value (Oryza sativa (ORYSA); [28]) was 0% and the “Post-emergence action against ORYSA in %” value (Oryza sativa (ORYSA); 320 g/ha, effect in comparison to untreated controls) was 0%. For the same compound, the “Post-emergence action against ZEAMX in %” value (Zea mays (ZEAMX) [3]) was 20%, the “Pre-emergence action against VERPE in %” value [4] was 80% and the “Post-emergence action against VERPE in %” value ([5]; 320 g/ha, VERPE) was 80%. The “Pre-emergence action against DIGSA in %” value ([6]; dosage 320 g/ha) was 90%, the “Post-emergence action against AMARE in %” value [7, 29] was 80% and the “Post-emergence action against AMARE in %” value [7, 30] was 80%. For the same compound, the “Pre-emergence action against ZEAMX in %” value (Zea mays (ZEAMX) [8]) was 0%, the “Post-emergence action against PHBPU in %” value ([9]; dosage 80 g/ha) was 80% and the “Post-emergence action against PHBPU in %” value ([9]; dosage 320 g/ha) was 80%. The “Post-emergence action against POLCO in %” value [10] was 80%.
For `CCOC(=O)COc1nn(-c2nc(F)ccc2F)c(-c2ccc(F)nc2)c1C1CC1` [Example I-348], the “Post-emergence action against VIOTR in %” value (Viola tricolor (VIOTR) [1]; 80 g/ha) was 80%, the “Post-emergence action against VIOTR in %” value (Viola tricolor (VIOTR) [1]; 320 g/ha) was 80% and the “Pre-emergence action against VIOTR in %” value (Viola tricolor (VIOTR) [11]; 320 g/ha, Viola tricolor) was 90%. The “Pre-emergence action against VIOTR in %” value (Viola tricolor (VIOTR) [11]; dosage 80 g/ha) was 80%, the “Post-emergence action against SETVI in %” value (Setaria viridis (SETVI) [12]; dosage 80 g/ha) was 80% and the “Post-emergence action against SETVI in %” value (Setaria viridis (SETVI) [12]; dosage 320 g/ha) was 90%. The “Post-emergence action against MATIN in %” value ([13]; dosage 320 g/ha) was 80%, the “Post-emergence action against LOLRI in %” value (Lolium rigidum (LOLRI) [14]; dosage 80 g/ha) was 80% and the “Post-emergence action against LOLRI in %” value (Lolium rigidum (LOLRI) [14]; dosage 320 g/ha) was 80%. For the same compound, the “Pre-emergence action against SETVI in %” value (Setaria viridis (SETVI) [15]; dosage 80 g/ha) was 80%, the “Pre-emergence action against SETVI in %” value (Setaria viridis (SETVI) [15]; dosage 320 g/ha) was 100% and the “Post-emergence action against AVEFA in %” value (Avena fatua (AVEFA) [16]; 80 g/ha) was 80%. The “Post-emergence action against AVEFA in %” value (Avena fatua (AVEFA) [16]; 320 g/ha) was 80%, the “Pre-emergence action against AMARE in %” value ([2]; 320 g/ha) was 90% and the “Post-emergence action against ABUTH in %” value ([17]; 320 g/ha) was 80%. The “Post-emergence action against ORYSA in %” value (Oryza sativa (ORYSA); [28]) was 0%, the “Post-emergence action against ZEAMX in %” value (Zea mays (ZEAMX) [3]) was 20% and the “Pre-emergence action against MATIN in %” value [18] was 90%. For the same compound, the “Pre-emergence action against VERPE in %” value [4] was 90%, the “Pre-emergence action against ECHCG in %” value [19] was 90% and the “Post-emergence action against DIGSA in %” value ([20]; 80 g/ha) was 80%. For the same compound, the “Post-emergence action against DIGSA in %” value ([20]; 320 g/ha) was 90%, the “Pre-emergence action against LOLRI in %” value (Lolium rigidum (LOLRI) [21]; dosage 80 g/ha) was 90% and the “Pre-emergence action against LOLRI in %” value (Lolium rigidum (LOLRI) [21]; dosage 320 g/ha) was 100%. The “Post-emergence action against VERPE in %” value ([5]; 320 g/ha, VERPE) was 80%, the “Post-emergence action against VERPE in %” value ([5]; dosage 80 g/ha) was 80% and the “Pre-emergence action against PHBPU in %” value [22] was 90%. The “Pre-emergence action against ALOMY” value ([23]; 320 g/ha) was 80%, the “Pre-emergence action against AVEFA in %” value (Avena fatua (AVEFA) [24]) was 90% and the “Pre-emergence action against DIGSA in %” value [6, 31] was 90%. The “Pre-emergence action against DIGSA in %” value ([6]; dosage 320 g/ha) was 100%, the “Post-emergence action against AMARE in %” value [7, 30] was 80% and the “Post-emergence action against PHBPU in %” value ([9]; dosage 80 g/ha) was 80%. For the same compound, the “Post-emergence action against PHBPU in %” value ([9]; dosage 320 g/ha) was 80%, the “Post-emergence action against POLCO in %” value [10] was 80% and the “Post-emergence action against ECHCG in %” value ([25]; dosage 80 g/ha) was 90%. The “Post-emergence action against ECHCG in %” value ([25]; dosage 320 g/ha) was 90%, the “Post-emergence action against ALOMY in %” value ([26]; 80 g/ha) was 80% and the “Post-emergence action against ALOMY in %” value ([26]; 320 g/ha) was 90%.
For `O=C(O)CNC(=O)COc1nn(-c2ccccn2)c(-c2ccc(F)nc2)c1Cl` [Example I-118], the “Pre-emergence action against VIOTR in %” value (Viola tricolor (VIOTR) [11]; 320 g/ha, Viola tricolor) was 100%, the “Post-emergence action against SETVI in %” value (Setaria viridis (SETVI) [12]; dosage 80 g/ha) was 80% and the “Post-emergence action against MATIN in %” value ([13]; dosage 80 g/ha) was 80%. For the same compound, the “Pre-emergence action against SETVI in %” value (Setaria viridis (SETVI) [15]; dosage 80 g/ha) was 90%, the “Pre-emergence action against SETVI in %” value (Setaria viridis (SETVI) [15]; dosage 320 g/ha) was 100% and the “Pre-emergence action against AMARE in %” value ([2]; 80 g/ha) was 90%. For the same compound, the “Pre-emergence action against AMARE in %” value ([2]; 320 g/ha) was 100%, the “Post-emergence action against ABUTH in %” value ([17]; 80 g/ha) was 80% and the “Post-emergence action against ORYSA in %” value (Oryza sativa (ORYSA); 20 g/ha, effect vs untreated controls) was 0%. For the same compound, the “Post-emergence action against ORYSA in %” value (Oryza sativa (ORYSA); [28]) was 0%, the “Pre-emergence action against MATIN in %” value [18] was 90% and the “Pre-emergence action against VERPE in %” value [4] was 90%. The “Pre-emergence action against ECHCG in %” value [19] was 100%, the “Post-emergence action against DIGSA in %” value ([20]; 80 g/ha) was 80% and the “Pre-emergence action against LOLRI in %” value (Lolium rigidum (LOLRI) [21]; dosage 80 g/ha) was 90%. For the same compound, the “Pre-emergence action against LOLRI in %” value (Lolium rigidum (LOLRI) [21]; dosage 320 g/ha) was 100%, the “Post-emergence action against VERPE in %” value ([5]; dosage 80 g/ha) was 90% and the “Pre-emergence action against PHBPU in %” value [22] was 90%. The “Pre-emergence action against POLCO in %” value ([27]; dosage 80 g/ha) was 80%, the “Pre-emergence action against POLCO in %” value ([27]; dosage 320 g/ha) was 90% and the “Pre-emergence action against ALOMY” value ([23]; 80 g/ha) was 90%. For the same compound, the “Pre-emergence action against ALOMY” value ([23]; 320 g/ha) was 100%, the “Pre-emergence action against AVEFA in %” value (Avena fatua (AVEFA) [24]) was 90% and the “Pre-emergence action against DIGSA in %” value [6, 31] was 100%. The “Pre-emergence action against DIGSA in %” value ([6]; dosage 320 g/ha) was 100%, the “Post-emergence action against AMARE in %” value [7, 29] was 90% and the “Post-emergence action against PHBPU in %” value ([9]; dosage 80 g/ha) was 80%. For the same compound, the “Post-emergence action against ECHCG in %” value ([25]; dosage 80 g/ha) was 80% and the “Post-emergence action against ALOMY in %” value ([26]; 80 g/ha) was 100%.
